Targets include A*6802 (Homo sapiens, UniProt P04439, A269V/D140Y/D185E/E176V/E277Q/E87N/F33Y/G231S/I121R/I166T/I218V/L180W/L300P/L318F/N151K/P208A/P217A/Q86R/R138H/R169H/S129P/T345S/V36M); A*0202 (Homo sapiens, UniProt P04439, D140Y/D185E/D98H/E176V/E277Q/G131W/G231S/I119L/I121R/I166T/I218V/L180W/L300P/L318F/N151K/N90K/P208A/P217A/Q67R/Q86G/Q94H/R138H/R169H/T345S); A*0206 (Homo sapiens, UniProt P04439, D140Y/D185E/D98H/E176V/E277Q/F33Y/G131W/G231S/I119V/I121R/I166T/I218V/L300P/L318F/N151K/N90K/P208A/P217A/Q86G/Q94H/R138H/R169H/T345S); HLA-A*0201 (HLA-A2.1) (Homo sapiens, UniProt P04439, D140Y/D185E/D98H/E176V/E277Q/G131W/G231S/I119V/I121R/I166T/I218V/L300P/L318F/N151K/N90K/P208A/P217A/Q86G/Q94H/R138H/R169H/T345S); A*0203 (Homo sapiens, UniProt P04439, A173T/D140Y/D185E/D98H/E277Q/G131W/G231S/I119V/I121R/I166T/I218V/L180W/L300P/L318F/N151K/N90K/P208A/P217A/Q86G/Q94H/R138H/R169H/T345S).

Assay in all cases: biochemical
What all share (assay type): binding

No end group written: not given here.

A word on the IC50: it is the concentration that inhibits the measured activity by half. Take VQWAYDNEL [Peptide 86.0196]: the half-inhibitory concentration (IC50) was greater than 20 µM at A*6802, 190 nM on A*0202 and 1100 nM against A*0206.
The like results for RTLQQLMFI [Peptide 1525.23] were, in that order, greater than 20 µM, 1820 nM and 55 nM.
As to MLGVLVGVALI [Peptide 9013.0349], the IC50 on A*6802 amounted to 8.79 µM; against A*0202 it was 432 nM; on A*0206, 4730 nM; against HLA-A*0201 (HLA-A2.1) it was 4960 nM.
On to IQNDTGFYT [Peptide 9013.0034], for which the IC50 at A*6802 is greater than 20 µM; on A*0202, 3740 nM; against A*0206, 474 nM; at HLA-A*0201 (HLA-A2.1) it was greater than 20000 nM.
Take YVVWDSIYYI [Peptide 1578.52]: the half-maximal inhibitory concentration (IC50) amounted to 127 nM against A*0202, 49 nM on A*0206 and 77 nM against HLA-A*0201 (HLA-A2.1).
For TTVTTITVYV [Peptide 9013.0192], the concentration for half-maximal inhibition (IC50) stood at 0.017 µM against A*6802, 21 nM against A*0202, 326 nM against A*0203 and 1040 nM against HLA-A*0201 (HLA-A2.1).
The like results for GVNLSLSCHAV [Peptide 9013.0311] were, in that order, 0.947 µM, 63 nM, 2590 nM and 2090 nM.
Consider LTIESTPFNVV [Peptide 9013.0267], for which the half-inhibitory concentration (IC50) turned out to be 0.123 µM against A*6802, 188 nM on A*0202, 77 nM against A*0206 and 1090 nM against HLA-A*0201 (HLA-A2.1).
RILQQPLFI [Peptide 1545.03]: the 50% inhibitory concentration (IC50) was greater than 20 µM on A*6802, 9910 nM against A*0202, 872 nM against A*0206 and 140 nM against HLA-A*0201 (HLA-A2.1).
Consider QQHTQVLFV [Peptide 9013.0102], for which the concentration for half-maximal inhibition (IC50) was greater than 20 µM on A*6802, 1420 nM against A*0202, 80 nM at A*0203 and 2100 nM at HLA-A*0201 (HLA-A2.1).
For the molecule `CC[C@H](C)[C@H](NC(=O)[C@@H](NC(=O)[C@@H](NC(=O)[C@@H](NC(=O)[C@@H](NC(=O)[C@@H](NC(=O)[C@@H](N)CCCNC(=N)N)[C@@H](C)O)[C@@H](C)O)C(C)C)[C@@H](C)O)[C@@H](C)O)C(=O)N[C@H](C(=O)N[C@H](C(=O)N[C@@H](Cc1ccc(O)cc1)C(=O)N[C@H](C(=O)O)C(C)C)C(C)C)[C@@H](C)O` [Peptide 9013.0304], the values for the 50% inhibitory concentration (IC50) on A*6802, against A*0202 and on A*0206 were 0.00018 µM, 9.6 nM and 73 nM, respectively.
Consider GLNLSLSCHAA [Peptide 9013.0312], for which the IC50 on A*6802 was greater than 20 µM; on A*0202, 47 nM; at A*0206 it was greater than 20000 nM; on HLA-A*0201 (HLA-A2.1), 1420 nM.
With RLYVCGIQNSV [Peptide 9013.0335], the IC50 against A*6802 was greater than 20 µM; at A*0202, 6.3 nM; against A*0203 it was 24 nM; against HLA-A*0201 (HLA-A2.1), 170 nM.
With VLAEAMSKA [Peptide 1539.07], the IC50 against A*6802 turned out to be 4.58 µM; against A*0202 it was 3.4 nM; at A*0203, 7.6 nM; at HLA-A*0201 (HLA-A2.1) it was 69 nM.
Turning to AIFGVNPTI [Peptide 86.0178], the 50% inhibitory concentration (IC50) is 3.54 µM against A*6802, 13 nM against A*0202, 324 nM against A*0203 and 1820 nM at HLA-A*0201 (HLA-A2.1).
Turning to YIDDYLRNL [Peptide 1578.39], the 50% inhibitory concentration (IC50) against A*6802 was greater than 20 µM; against A*0202, 27 nM; against A*0203, 380 nM.
For the molecule LLFWNPPTT [Peptide 9013.0007], the IC50 at A*6802 is greater than 20 µM; against A*0202, 15 nM; on A*0203, 4.3 nM; on HLA-A*0201 (HLA-A2.1), 11 nM.
The like results for LQLSNDNRV [Peptide 9013.0072] were, in that order, greater than 20 µM, 1700 nM, greater than 20000 nM and greater than 20000 nM.
Regarding SLACSWGMVV [Peptide 1578.02], the IC50 against A*0202 is 22 nM; against A*0203, 8.5 nM; against HLA-A*0201 (HLA-A2.1) it was 805 nM.
For GLMIGVLVGVA [Peptide 9013.0345], the IC50 on A*6802 is greater than 20 µM; against A*0202, 39 nM; at A*0206, 3300 nM; on HLA-A*0201 (HLA-A2.1), 2190 nM.
For the molecule YLLHVIKSDL [Peptide 9013.0152], the IC50 on A*0202 was determined as 22 nM; at A*0206, 62 nM; against HLA-A*0201 (HLA-A2.1), 86 nM.
As for YACFVSNLAV [Peptide 9013.0248], the concentration for half-maximal inhibition (IC50) against A*6802 was found to be 0.095 µM; against A*0202 it was 754 nM; against A*0206, 71 nM; against HLA-A*0201 (HLA-A2.1) it was 1390 nM.
Turning to FLKGCIISYV [Peptide 1578.43], the IC50 on A*6802 was found to be 0.795 µM; against A*0202, 0.85 nM; on A*0203 it was 2 nM; against HLA-A*0201 (HLA-A2.1), 341 nM.
In the case of VQWAYDNDV [Peptide 86.0190], the half-inhibitory concentration (IC50) against A*6802 was 3.59 µM; against A*0202 it was 89 nM; against A*0206 it was 428 nM; against HLA-A*0201 (HLA-A2.1), 4430 nM.
The like results for VAWDSVYYV [Peptide 1593.57] were, in that order, 0.048 µM, 35 nM, 3.3 nM and 4.4 nM.
As for WLNGQSLPV [Peptide 9013.0090], the figures for the concentration for half-maximal inhibition (IC50) against A*0202 and at A*0203 were 8.6 nM and 6.4 nM, respectively.
With FLDAFKKFL [Peptide 1578.31], the IC50 was greater than 20 µM against A*6802, 25 nM at A*0202, 420 nM against A*0206 and 158 nM at HLA-A*0201 (HLA-A2.1).
For the molecule ILYPNASLL [Peptide 9013.0030], the half-maximal inhibitory concentration (IC50) on A*6802 came to 14.7 µM; on A*0202, 1.8 nM; at A*0203, 4.2 nM; at HLA-A*0201 (HLA-A2.1) it was 130 nM.
For VLEGKEVLL [Peptide 9013.0019], the 50% inhibitory concentration (IC50) was greater than 20 µM against A*6802, 18 nM on A*0202, greater than 20000 nM against A*0206 and 2910 nM on HLA-A*0201 (HLA-A2.1).
In the case of KLTQLCVTL [Peptide 1537.02], the IC50 on A*6802 is greater than 20 µM; on A*0202, 2.7 nM; against A*0206, 131 nM; on HLA-A*0201 (HLA-A2.1) it was 24 nM.
The like results for KLMSNLLSI [Peptide 1578.21] were, in that order, greater than 20 µM, 2.7 nM, 34 nM and 16 nM.
For ILNDTGFYT [Peptide 9013.0036], the concentration for half-maximal inhibition (IC50) on A*6802 was greater than 20 µM; against A*0202 it was 14 nM; against A*0206, 3810 nM; against HLA-A*0201 (HLA-A2.1), 213 nM.
NLAEGKEVLLL [Peptide 9013.0271]: the half-maximal inhibitory concentration (IC50) against A*6802 was greater than 20 µM; on A*0202, 18 nM; against A*0206 it was greater than 20000 nM; against HLA-A*0201 (HLA-A2.1), 7590 nM.
In the case of TVQDVSLEV [Peptide 1593.55], the results for the 50% inhibitory concentration (IC50) against A*6802, against A*0202 and at A*0203 were 0.015 µM, 483 nM and 56 nM, respectively.
With VVWDSIYYI [Peptide 1578.53], the IC50 against A*6802 amounted to 0.052 µM; on A*0202, 39 nM; against A*0206 it was 11 nM; against HLA-A*0201 (HLA-A2.1) it was 13 nM.
ELQNTTYLWWV [Peptide 9013.0325]: the IC50 is 0.157 µM on A*6802, greater than 20000 nM on A*0206 and 3000 nM against HLA-A*0201 (HLA-A2.1).
VAWDSVYYM [Peptide 1578.46]: the IC50 against A*6802 turned out to be 5.15 µM; against A*0202, 603 nM; against A*0203, 1330 nM.
As to VLFTCEPEA [Peptide 9013.0089], the IC50 against A*6802 was greater than 20 µM; against A*0202, 70 nM; against A*0206 it was 4570 nM; against HLA-A*0201 (HLA-A2.1), 240 nM.
Take YLHNRLVVFT [Peptide 86.0075]: the half-maximal inhibitory concentration (IC50) at A*6802 was 1.6 µM; against A*0202, 120 nM; against A*0206 it was 15200 nM.
As to ALDGNDISV [Peptide 1578.33], the IC50 is greater than 20 µM against A*6802, 41 nM against A*0202, 48 nM against A*0206 and 40 nM at HLA-A*0201 (HLA-A2.1).
Turning to RLENAILFTV [Peptide 1593.60], the IC50 at A*6802 is 15.8 µM; against A*0202, 24 nM; at A*0203 it was 160 nM.
Take RLIIGYVIGT [Peptide 9013.0140]: the 50% inhibitory concentration (IC50) on A*6802 was 14.6 µM; against A*0203 it was 636 nM; on HLA-A*0201 (HLA-A2.1), 1870 nM.
For LLQQYCLYL [Peptide 1578.01], the IC50 against A*0202 is 11 nM; at A*0203, 17 nM; at HLA-A*0201 (HLA-A2.1), 224 nM.
On to TTQDVSLEV [Peptide 1593.54], for which the concentration for half-maximal inhibition (IC50) on A*6802 is 0.009 µM; on A*0202 it was 2350 nM; on A*0206, 674 nM; on HLA-A*0201 (HLA-A2.1) it was 1340 nM.
FLGAFKKFL [Peptide 1578.22]: the IC50 at A*6802 was greater than 20 µM; against A*0202, 10 nM; at A*0206, 11800 nM; on HLA-A*0201 (HLA-A2.1), 5840 nM.
Take RMLQQLLFT [Peptide 1525.17]: the half-inhibitory concentration (IC50) at A*0202 came out at 1870 nM; against A*0203, 493 nM.
For ILQNDTGFYT [Peptide 9013.0147], the IC50 on A*6802 was greater than 20 µM; on A*0202 it was 187 nM; at A*0206, 11100 nM; against HLA-A*0201 (HLA-A2.1), 902 nM.

Source of the values: patent US9340577B2, “HLA binding motifs and peptides and their uses” (priority 1992, dated 2016).
